Data reported in patent publication US20220409619A1, “INHIBITORS OF HUMAN IMMUNODEFICIENCY VIRUS REPLICATION” (VIIV HEALTHCARE UK (No. 5) LIMITED, priority 2019, published 2022).

Assays:
[1] = system: recombinant NL4-3 virus (nef section replaced with Renilla luciferase gene) in MT-2 cells; experiment: HIV cell culture assay (antiviral activity, luciferase readout); type: cell-based; settings: Renilla, NL43
Experimental: HIV cell culture assay—MT-2 cells, 293T cells and the proviral DNA clone of NL4-3 virus were obtained from the NIH AIDS Research and Reference Reagent Program. MT-2 cells were propagated in RPMI 1640 media supplemented with 10% heat inactivated fetal bovine serum (FBS), 100 μg/ml penicillin G and up to 100 units/mL streptomycin. The 293T cells were propagated in DMEM media supplemented with 10% heat inactivated FBS, 100 μg/mL penicillin G and 100 μg/mL streptomycin. A recombinant NL4-3 proviral clone, in which a section of the nef gene was replaced with the Renilla luciferase gene, was used to make the reference virus used in these studies. The recombinant virus was prepared through transfection of the recombinant NL4-3 proviral clone into 293T cells using Transit-293 Transfection Reagent from Mirus Bio LLC (Madison, Wis.). Supernatent was harvested after 2-3 days and the amount of virus present was titered in MT-2 cells using luciferase enzyme activity as a marker by measuring luciferase enzyme activity. Luciferase was quantitated using the EnduRen Live Cell Substrate from Promega (Madison, Wis.). Antiviral activities of compounds toward the recombinant virus were quantified by measuring luciferase activity in MT-2 cells infected for 4-5 days with the recombinant virus in the presence of serial dilutions of the compound.
The 50% effective concentration (EC50) was calculated by using the exponential form of the median effect equation where (Fa)=1/[1+(ED50/drug conc.)^m] (Johnson V A, Byington R T. Infectivity Assay. In Techniques in HIV Research. ed. Aldovini A, Walker B D. 71-76. New York: Stockton Press. 1990). Curve fitting and analysis were performed with ActivityBase XE Runner software version 9.1.0.4 using model 203 (ID Business Solutions, LTD, Guildford, UK).

[2] = Compound cytotoxicity, XTT-based colorimetric assay; type: cell-based; settings: human; uninfected MT2 cells, day 4, XTT-based colorimetric assay
Experimental: Compound cytotoxicity and the corresponding CC50 values were determined using the same protocol as described in the antiviral assay except that uninfected cells were used. Cytotoxicity was assessed on day 4 in uninfected MT2 cells by using a XTT (2,3-bis[2-Methoxy-4-nitro-5-sulfophenyl]-2H-tetrazolium-5-carboxyanilide inner salt)-based colorimetric assay (Sigma-Aldrich, St Louis, Mo.).

Molecule `COc1cnc(-c2cc(=O)n(-c3ccc(Cl)c4c(NS(C)(=O)=O)nn(C)c34)c([C@H](Cc3cc(F)cc(F)c3)NC(=O)Cn3nc(C(F)F)c4c3C(F)(F)[C@@H]3C[C@H]43)n2)cn1` (atropisomer, axis not shown; (P)) [Example 13, N-((S)-1-((1P)-1-(4-chloro-1-methyl-3-(methylsulfonamido)-1H-indazol-7-yl)-4-(5-methoxypyrazin-2-yl)-6-oxo-1,6-dihydropyrimidin-2-yl)-2-(3,5-difluorophenyl)ethyl)-2-((3bS,4aR)-3-(difluoromethyl)-5,5-difluoro-3b,4,4a,5-tetrahydro-1H-cyclopropa[3,4]cyclopenta[1,2-c]pyrazol-1-yl)acetamide] has an EC50 [1] of 0.2 nM and a CC50 at 4 days [2] of over 100 nM.

Work on `O=C(Cn1nc(C(F)F)c2c1C(F)(F)[C@@H]1C[C@H]21)N[C@@H](Cc1cc(F)cc(F)c1)c1nc(-c2nccc(C(F)F)n2)cc(=O)n1-c1ccc(Cl)c2c(NS(=O)(=O)C3CC3)nn(CC(F)F)c12` (atropisomer, axis not shown; (aR)) [Example 27, N-((S)-1-((1′P)-1′-(4-chloro-3-(cyclopropanesulfonamido)-1-(2,2-difluoroethyl)-1H-indazol-7-yl)-4-(difluoromethyl)-6′-oxo-1′,6′-dihydro-[2,4′-bipyrimidin]-2′-yl)-2-(3,5-difluorophenyl)ethyl)-2-((3bS,4aR)-3-(difluoromethyl)-5,5-difluoro-3b,4,4a,5-tetrahydro-1H-cyclopropa[3,4]cyclopenta[1,2-c]pyrazol-1-yl)acetamide] yielded an EC50 [1] of 0.13 nM and a CC50 at 4 days [2] of over 100 nM.

In the case of `Cc1cc(C)nc(-c2cc(=O)n(-c3ccc(Cl)c4c(NS(C)(=O)=O)nn(C)c34)c([C@H](Cc3cc(F)cc(F)c3)NC(=O)Cn3nc(C(F)F)c4c3C(F)(F)[C@@H]3C[C@H]43)n2)n1` (atropisomer, axis not shown; (aR)) [Example 4, N-((S)-1-((1′P)-1′-(4-chloro-1-methyl-3-(methylsulfonamido)-1H-indazol-7-yl)-4,6-dimethyl-6′-oxo-1′,6′-dihydro-[2,4′-bipyrimidin]-2′-yl)-2-(3,5-difluorophenyl)ethyl)-2-((3bS,4aR)-3-(difluoromethyl)-5,5-difluoro-3b,4,4a,5-tetrahydro-1H-cyclopropa[3,4]cyclopenta[1,2-c]pyrazol-1-yl)acetamide], the EC50 [1] is reported as 0.044 nM and the CC50 at 4 days [2] is reported as over 100 nM.

`O=C(Cn1nc(C(F)F)c2c1C(F)(F)[C@@H]1C[C@H]21)N[C@@H](Cc1cc(F)cc(F)c1)c1nc(-c2nccc(C(F)(F)F)n2)cc(=O)n1-c1ccc(Cl)c2c(NS(=O)(=O)C3CC3)nn(CC(F)F)c12` (atropisomer, axis not shown; (aR)) [Example 46, N-((S)-1-((1′P)-1′-(4-chloro-3-(cyclopropanesulfonamido)-1-(2,2-difluoroethyl)-1H-indazol-7-yl)-6′-oxo-4-(trifluoromethyl)-1′,6′-dihydro-[2,4′-bipyrimidin]-2′-yl)-2-(3,5-difluorophenyl)ethyl)-2-((3bS,4aR)-3-(difluoromethyl)-5,5-difluoro-3b,4,4a,5-tetrahydro-1H-cyclopropa[3,4]cyclopenta[1,2-c]pyrazol-1-yl)acetamide] showed an EC50 [1] of 0.05 nM and a CC50 at 4 days [2] of over 100 nM.

In the case of `O=C(Cn1nc(C(F)(F)F)c2c1C(F)(F)[C@@H]1C[C@H]21)N[C@@H](Cc1cc(F)cc(F)c1)c1nc(-c2nccc(C(F)F)n2)cc(=O)n1-c1ccc(Cl)c2c(NS(=O)(=O)C3CC3)nn(CC(F)F)c12` (atropisomer, axis not shown; (aR)) [Example 32, N-((S)-1-((1′P)-1′-(4-chloro-3-(cyclopropanesulfonamido)-1-(2,2-difluoroethyl)-1H-indazol-7-yl)-4-(difluoromethyl)-6′-oxo-1′,6′-dihydro-[2,4′-bipyrimidin]-2′-yl)-2-(3,5-difluorophenyl)ethyl)-2-((3bS,4aR)-5,5-difluoro-3-(trifluoromethyl)-3b,4,4a,5-tetrahydro-1H-cyclopropa[3,4]cyclopenta[1,2-c]pyrazol-1-yl)acetamide], the EC50 [1] is reported as 0.3 nM and the CC50 at 4 days [2] is reported as over 100 nM.

With `Cn1nc(C(F)(F)F)cc1-c1cc(=O)n(-c2ccc(Cl)c3c(NS(C)(=O)=O)nn(C)c23)c([C@H](Cc2cc(F)cc(F)c2)NC(=O)Cn2nc(C(F)F)c3c2C(F)(F)[C@@H]2C[C@H]32)n1` (atropisomer, axis not shown; (P)) [Example 19, N-((S)-1-((1P)-1-(4-chloro-1-methyl-3-(methylsulfonamido)-1H-indazol-7-yl)-4-(1-methyl-3-(trifluoromethyl)-1H-pyrazol-5-yl)-6-oxo-1,6-dihydropyrimidin-2-yl)-2-(3,5-difluorophenyl)ethyl)-2-((3bS,4aR)-3-(difluoromethyl)-5,5-difluoro-3b,4,4a,5-tetrahydro-1H-cyclopropa[3,4]cyclopenta[1,2-c]pyrazol-1-yl)acetamide] the EC50 [1] was 0.74 nM and the CC50 at 4 days [2] was over 100 nM.

Work on `COC(C)(C)C#Cc1cc(=O)n(-c2ccc(Cl)c3c(NS(=O)(=O)C4CC4)nn(CC(F)F)c23)c([C@H](Cc2cc(F)cc(F)c2)NC(=O)Cn2nc(C(F)(F)F)c3c2C(F)(F)[C@@H]2C[C@H]32)n1` (atropisomer, axis not shown; (P)) [Example 45, N-((S)-1-((1P)-1-(4-chloro-3-(cyclopropanesulfonamido)-1-(2,2-difluoroethyl)-1H-indazol-7-yl)-4-(3-methoxy-3-methylbut-1-yn-1-yl)-6-oxo-1,6-dihydropyrimidin-2-yl)-2-(3,5-difluorophenyl)ethyl)-2-((3bS,4aR)-5,5-difluoro-3-(trifluoromethyl)-3b,4,4a,5-tetrahydro-1H-cyclopropa[3,4]cyclopenta[1,2-c]pyrazol-1-yl)acetamide] yielded an EC50 [1] of 0.12 nM and a CC50 at 4 days [2] of over 100 nM.

Molecule `COC(C)(C)C#Cc1cc(=O)n(-c2ccc(Cl)c3c(NS(=O)(=O)C4CC4)nn(CC(F)F)c23)c([C@H](Cc2cc(F)cc(F)c2)NC(=O)Cn2nc(C(F)F)c3c2C(F)(F)[C@@H]2C[C@H]32)n1` (atropisomer, axis not shown; (P)) [Example 41, N-((S)-1-((1P)-1-(4-chloro-3-(cyclopropanesulfonamido)-1-(2,2-difluoroethyl)-1H-indazol-7-yl)-4-(3-methoxy-3-methylbut-1-yn-1-yl)-6-oxo-1,6-dihydropyrimidin-2-yl)-2-(3,5-difluorophenyl)ethyl)-2-((3bS,4aR)-3-(difluoromethyl)-5,5-difluoro-3b,4,4a,5-tetrahydro-1H-cyclopropa[3,4]cyclopenta[1,2-c]pyrazol-1-yl)acetamide] has an EC50 [1] of 0.064 nM and a CC50 at 4 days [2] of over 100 nM.

In the case of `O=C(Cn1nc(C(F)F)c2c1C(F)(F)[C@@H]1C[C@H]21)N[C@@H](Cc1cc(F)cc(F)c1)c1nc(-c2cnccn2)cc(=O)n1-c1ccc(Cl)c2c(NS(=O)(=O)C3CC3)nn(CC(F)F)c12` (atropisomer, axis not shown; (P)) [Example 50, N-((S)-1-((1P)-1-(4-chloro-3-(cyclopropanesulfonamido)-1-(2,2-difluoroethyl)-1H-indazol-7-yl)-6-oxo-4-(pyrazin-2-yl)-1,6-dihydropyrimidin-2-yl)-2-(3,5-difluorophenyl)ethyl)-2-((3bS,4aR)-3-(difluoromethyl)-5,5-difluoro-3b,4,4a,5-tetrahydro-1H-cyclopropa[3,4]cyclopenta[1,2-c]pyrazol-1-yl)acetamide], the EC50 [1] is reported as 0.81 nM and the CC50 at 4 days [2] is reported as over 100 nM.

`O=C(Cn1nc(C(F)F)c2c1C(F)(F)[C@@H]1C[C@H]21)N[C@@H](Cc1cc(F)cc(F)c1)c1nc(-c2ccc(Cl)cn2)cc(=O)n1-c1ccc(Cl)c2c(NS(=O)(=O)C3CC3)nn(CC(F)F)c12` (atropisomer, axis not shown; (P)) [Example 35, N-((S)-1-((1P)-1-(4-chloro-3-(cyclopropanesulfonamido)-1-(2,2-difluoroethyl)-1H-indazol-7-yl)-4-(5-chloropyridin-2-yl)-6-oxo-1,6-dihydropyrimidin-2-yl)-2-(3,5-difluorophenyl)ethyl)-2-((3bS,4aR)-3-(difluoromethyl)-5,5-difluoro-3b,4,4a,5-tetrahydro-1H-cyclopropa[3,4]cyclopenta[1,2-c]pyrazol-1-yl)acetamide] showed an EC50 [1] of 0.72 nM and a CC50 at 4 days [2] of over 100 nM.

In the case of `CCc1cnc(-c2cc(=O)n(-c3ccc(Cl)c4c(NS(C)(=O)=O)nn(C)c34)c([C@H](Cc3cc(F)cc(F)c3)NC(=O)Cn3nc(C(F)F)c4c3C(F)(F)[C@@H]3C[C@H]43)n2)nc1` (atropisomer, axis not shown; (aR)) [Example 12, N-((S)-1-((1′P)-1′-(4-chloro-1-methyl-3-(methylsulfonamido)-1H-indazol-7-yl)-5-ethyl-6′-oxo-1′,6′-dihydro-[2,4′-bipyrimidin]-2′-yl)-2-(3,5-difluorophenyl)ethyl)-2-((3bS,4aR)-3-(difluoromethyl)-5,5-difluoro-3b,4,4a,5-tetrahydro-1H-cyclopropa[3,4]cyclopenta[1,2-c]pyrazol-1-yl)acetamide], the EC50 [1] is reported as 0.019 nM and the CC50 at 4 days [2] is reported as over 100 nM.
